# Experimental data as given in patent US20260294871A1, “PHARMACEUTICAL COMBINATIONS AND COMPOSITIONS THEREOF COMPRISING ANTIBACTERIAL AGENTS” (priority 2023, published 2026).
# Several values for one entry are separate records, joined by “and”; a condition that tells them apart may be missing. Equal values may be shown once. Read-outs that look alike come from different tables or passages of the source.
# Experiments:
# [1] = system: Enterobacterales; experiment: MIC profile of EDTA, Enterobacterales; assay type: cell-based; settings: n = 40
# Description: (§1) Objective: The in-vitro activity of ethylenediaminetetraacetic acid (EDTA) was tested in cation-adjusted Mueller Hinton broth (CA-MHB) and MHB against a panel of Gram-negative clinical isolates from India.
# (§2) Method: A total of 80 isolates including ATCC strains and non-duplicate clinically relevant Escherichia coli (n=20), Klebsiella pneumoniae (n=20), Pseudomonas aeruginosa (n=21) and Acinetobacter baumannii (n=19) characterized isolates were selected prior to susceptibility testing. The clinical isolates were collected from hospitalized patients from tertiary care medical centers in India. Isolates were tested for susceptibility to different test concentrations of EDTA (1.25, 2.5, 5, 10, 20, 40, 80 mM) in CA-MHB media and MHB by broth microdilution.
# [2] = system: P. aeruginosa; experiment: MIC profile of EDTA, P. aeruginosa; assay type: cell-based, Pseudomonas aeruginosa; settings: for MIC: CA-MHB
# Description: as §1, §2
# [3] = system: All isolates (n = 80); experiment: MIC profile of EDTA, all tested isolates; assay type: cell-based, Gram-negative clinical isolates
# Description: as §1, §2
# [4] = system: E. coli; experiment: MIC profile of EDTA, E. coli; assay type: cell-based, Escherichia coli; settings: for MIC50 / MIC90 / MIC: Escherichia coli, n = 20
# Description: as §1, §2
# [5] = system: A. baumannii; experiment: MIC profile of EDTA, A. baumannii; assay type: cell-based, Acinetobacter baumannii
# Description: as §1, §2
# [6] = system: Non-fermenters; experiment: MIC profile of EDTA, non-fermenters; assay type: cell-based; settings: n = 40; for MIC: CA-MHB
# Description: as §1, §2
# [7] = system: K. pneumoniae; experiment: MIC profile of EDTA, K. pneumoniae; assay type: cell-based, Klebsiella pneumoniae
# Description: as §1, §2
# [8] = system: Stenotrophomonas maltophilia; experiment: MIC by broth microdilution against Stenotrophomonas maltophilia; assay type: cell-based; settings: Stenotrophomonas maltophilia, highly resistant strains
# Description: (§3) In a typical study MIC tests were performed by broth microdilution in line with CLSI susceptibility testing standards. Bacterial inocula were prepared at ca. 1×10^6 CFU/mL by diluting 100-fold a 0.5 McFarland suspension in CA-MHB with TES. Microtiter plate wells containing 50 μL of antibacterial solutions at 2×the final concentrations were diluted 2-fold with 50 μL of inoculum to give a final inoculum of ca. 5×10^5 CFU/mL and desired test concentrations of antibacterial agents. Test microtiter plates were incubated according to CLSI guidelines and read visually. MIC values corresponded to the first well with no visible growth.
# The results of antibacterial activity of amikacin, Ceftazidime-avibactam, Ceftriaxone with sulbactam and EDTA, Meropenem and Meropenem with avibactum and EDTA against highly resistant strains of Stenotrophomonas maltophilia are given in Table 8.
# [9] = system: all grouped isolates from India; experiment: MIC by broth microdilution against all grouped isolates from India; assay type: cell-based, resistant bacterial strains
# Description: as §3
# There was a marked improvement in antibacterial activity, compared to MEM alone, observed for the triple combinations, for MEM/AVI [4 mg/L]/EDTA [10 mM] and MEM/AVI [4 mg/L]/EDTA [20 mM], the reduction in MIC90 was 0.06 μg/mL and ≤0.002 μg/mL, respectively.
# [10] = system: Escherichia coli; experiment: MIC by broth microdilution against E. coli; assay type: cell-based; settings: Escherichia coli, highly resistant strains
# Description: as §3
# The results of antibacterial activity of amikacin, Ceftazidime-avibactam, Ceftriaxone with sulbactam and EDTA, Meropenem and Meropenem with avibactam and EDTA against highly resistant strains of Escherichia coli are given in Table 3. […] There was a marked improvement in antibacterial activity, compared to MEM alone, observed for the triple combination MEM/AVI [4 mg/L]/EDTA [10 mM] with a MIC90 at 0.004 μg/mL
# [11] = system: Acinetobacter baumannii; experiment: MIC by broth microdilution against Acinetobacter baumannii; assay type: cell-based
# Description: as §3
# The results of antibacterial activity of amikacin, Ceftazidime-avibactam, Ceftriaxone with sulbactam and EDTA, Meropenem and Meropenem with avibactum and EDTA against highly resistant strains of Acinetobacter baumannii are given in Table 7.
# [12] = system: P. aeruginosa; experiment: MIC by broth microdilution against P. aeruginosa; assay type: cell-based, Pseudomonas aeruginosa; settings: Pseudomonas aeruginosa, highly resistant strains
# Description: as §3
# The results of antibacterial activity of amikacin, Ceftazidime-avibactam, Ceftriaxone with sulbactam and EDTA, Meropenem and Meropenem with avibactum and EDTA against highly resistant strains of P. aeruginosa are given in Table 5. As may be seen, the activity of the comparators was much lower although CRO/S4/E10 maximum MIC90 were much lower at ≤0.03 μg/mL.
# [13] = system: K. pneumoniae; experiment: MIC by broth microdilution against Klebsiella; assay type: cell-based, Klebsiella pneumoniae; settings: highly resistant strains
# Description: as §3
# The results of antibacterial activity of amikacin, Ceftazidime-avibactam, Ceftriaxone with sulbactam and EDTA, Meropenem and Meropenem with avibactam and EDTA against highly resistant strains of Klebsiella (93. 3% Mem NS) are given in Table 4.
# [14] = system: Enterobacterales isolates from India; experiment: MIC by broth microdilution against Enterobacterales; assay type: cell-based, Enterobacteriaceae; settings: n=301
# Description: as §3
# The results of antibacterial activity of amikacin, Ceftazidime-avibactam, Ceftriaxone with sulbactam and EDTA, Meropenem and Meropenem with avibactam and EDTA against highly resistant strains of Enterobacteriaceae are given in Table 2.
# [15] = system: Non-Enterobacteriaceae (non-fermenter isolates); experiment: MIC by broth microdilution against Non-Enterobacteriaceae; assay type: cell-based
# Description: as §3
smiles,measurement,setting,value
"O=C(O)CN(CCN(CC(=O)O)CC(=O)O)CC(=O)O [EDTA, N,N′-(Ethane-1,2-diyl)bis[N-(carboxymethyl)glycine]]",MIC50,[1]; CA-MHB,40 mM
same,MIC90,[1]; CA-MHB,> 80 mM and >80 mM
same,MIC,"[1]; CA-MHB, read-out: MIC MAX",> 80 mM
same,MIC,"[1]; CA-MHB, read-out: MIC MIN",2.5 mM
same,MIC50,[1]; MHB,10 mM
same,MIC90,[1]; MHB,80 mM
same,MIC,"[1]; MHB, read-out: MIC MAX",> 80 mM
same,MIC,"[1]; MHB, read-out: MIC MIN",≤ 1.25 mM
same,MIC50,"[2]; MHB, n = 21",10 mM
same,MIC90,"[2]; MHB, n = 21",20 mM
same,MIC MAX,"[2]; MHB, n = 21",20 mM
same,MIC MIN,"[2]; MHB, n = 21",≤1.25 mM
same,MIC50,[2]; Pseudomonas aeruginosa,10 mM
same,MIC90,[2]; Pseudomonas aeruginosa,20 mM
same,MIC,"[2]; Pseudomonas aeruginosa, n = 21, read-out: MIC MAX",20 mM
same,MIC,"[2]; Pseudomonas aeruginosa, n = 21, read-out: MIC MIN",≤ 1.25 mM
same,MIC50,[3]; CA-MHB,10 mM
same,MIC90,[3]; CA-MHB,> 80 mM and >80 mM
same,MIC,"[3]; CA-MHB, read-out: MIC MAX",> 80 mM
same,MIC,"[3]; CA-MHB, read-out: MIC MIN",≤ 1.25 mM
same,MIC50,[3]; MHB,2.5 mM
same,MIC90,[3]; MHB,80 mM
same,MIC MAX,[3]; MHB,>80 mM
same,MIC MIN,[3]; MHB,≤1.25 mM
same,MIC50,[4]; CA-MHB,10 mM
same,MIC90,[4]; CA-MHB,80 mM
same,MIC,"[4]; CA-MHB, read-out: MIC MAX",> 80 mM
same,MIC,"[4]; CA-MHB, read-out: MIC MIN",2.5 mM
same,MIC50,[4]; MHB,2.5 mM
same,MIC90,[4]; MHB,20 mM
same,MIC,"[4]; MHB, read-out: MIC MAX",80 mM
same,MIC,"[4]; MHB, read-out: MIC MIN",≤ 1.25 mM
same,"MIC50 and MIC90 in MHB, fold lower to CA-MHB",[4]; MHB vs CA-MHB,4 fold
same,MIC,"[5]; Acinetobacter baumannii, read-out: MICs",≤ 1.25 mM
same,MIC50,"[5]; Acinetobacter baumannii, CA-MHB, n = 19, read-out: MIC50",≤ 1.25 mM
same,MIC90,"[5]; Acinetobacter baumannii, CA-MHB, n = 19, read-out: MIC90",≤ 1.25 mM
same,MIC,"[5]; Acinetobacter baumannii, CA-MHB, n = 19, read-out: MIC MAX",≤ 1.25 mM
same,MIC,"[5]; Acinetobacter baumannii, CA-MHB, n = 19, read-out: MIC MIN",≤ 1.25 mM
same,MIC50,"[5]; MHB, n = 19",≤1.25 mM
same,MIC90,"[5]; MHB, n = 19",≤1.25 mM
same,MIC MAX,"[5]; MHB, n = 19",≤1.25 mM
same,MIC MIN,"[5]; MHB, n = 19",≤1.25 mM
same,MIC,[6]; read-out: MIC MAX,20 mM
same,MIC,[6]; read-out: MIC MIN,≤ 1.25 mM
same,MIC MAX,[6]; MHB,20 mM
same,MIC MIN,[6]; MHB,≤1.25 mM
same,MIC90,"[7]; CA-MHB, n = 20",>80 mM
same,MIC50,[7]; Klebsiella pneumoniae,80 mM
same,MIC90,"[7]; Klebsiella pneumoniae, CA-MHB, n = 20",> 80 mM
same,MIC,"[7]; Klebsiella pneumoniae, CA-MHB, n = 20, read-out: MIC MAX",> 80 mM
same,MIC,"[7]; Klebsiella pneumoniae, CA-MHB, n = 20, read-out: MIC MIN",20 mM
same,MIC90,"[7]; Klebsiella pneumoniae, MHB, n = 20",80 mM
same,MIC,"[7]; Klebsiella pneumoniae, MHB, n = 20, read-out: MIC MAX",> 80 mM
same,MIC,"[7]; Klebsiella pneumoniae, MHB, n = 20, read-out: MIC MIN",5 mM
same,MIC in MHB compared to CA-MHB,[7]; MHB vs CA-MHB,almost similar to CA-MHB
same,MIC50,"[7]; MHB, n = 20",80 mM
NCC[C@H](O)C(=O)N[C@@H]1C[C@H](N)[C@@H](O[C@H]2O[C@H](CN)[C@@H](O)[C@H](O)[C@H]2O)[C@H](O)[C@H]1O[C@H]1O[C@H](CO)[C@@H](O)[C@H](N)[C@H]1O [Amikacin],MIC50,[8]; read-out: MIC50,> 64 µg/mL
same,MIC90,[8]; read-out: MIC90,> 64 µg/mL
same,MIC50,[9],> 64 µg/mL
same,MIC90,[9],> 64 µg/mL
same,MIC90,[9]; all grouped isolates (606),> 64 µg/mL
same,MIC50,[10]; read-out: MIC50,8 µg/mL
same,MIC90,[10]; read-out: MIC90,> 64 µg/mL
same,MIC90,[11]; Acinetobacter baumannii,> 64 µg/mL
same,MIC50,"[11]; Acinetobacter baumannii, highly resistant strains",> 64 µg/mL
same,MIC90,[11]; highly resistant strains,>64 µg/mL
same,MIC50,[12],> 64 µg/mL
same,MIC90,[12]; read-out: MIC90,> 64 µg/mL
same,MIC50,"[13]; Klebsiella pneumoniae, read-out: MIC50",> 64 µg/mL
same,MIC90,"[13]; Klebsiella pneumoniae, read-out: MIC90",> 64 µg/mL
same,MIC90,[13],>64 µg/mL
same,MIC90,[14],>64 µg/mL
same,MIC50,[14]; read-out: MIC50,> 64 µg/mL
same,MIC90,[14]; read-out: MIC90,> 64 µg/mL
same,MIC50,[15],> 64 µg/mL
same,MIC90,[15],> 64 µg/mL
same,MIC90,[15]; highly resistant strains,>64 µg/mL
